Experimental data taken from patent US20090118470A1 (priority 2005, published 2009).
Like-named read-outs stand apart in the source and are kept apart here.

Legend:
prions [1] = details: cited from earlier work; for effect on prions: alcohols alone
prions [2] = details: cited from earlier work
[3] = tested on: 263K strain of scrapie agent; assay type: in vivo, Syrian gold hamsters; details: for inactivation factor: at 80° C.; for Mean incubation period ± SE: diseased animals only; for No. infected/No. injected: intracerebral inoculation

CCO [ethanol]
effect on prions (prions [1]): do not have an effect on prions

CCCCCCCCCCCCOS(=O)(=O)[O-].[Na+] [SDS, Sodium dodecylsulfate]
residual infectivity after treatment (prions [1]; heated in SDS solution (3% or greater; 0.10 M) for at least ten minutes, without autoclaving): Some residual infectivity remains

Cl.N=C(N)N [guanidinium hydrochloride]
conversion of prions into an irregular coiled structure (prions [2]; 6 N guanidinium hydrochloride (573 g/l)): complete conversion

CC(C)O [2-propanol]
effect on prions (prions [1]): do not have an effect on prions

NC(N)=O [urea]
conversion of prions into an irregular coiled structure (prions [2]; 8 N urea (480 g/l)): complete conversion

OCC(O)CO [glycerol]
inactivation factor [3]: < 10

CCCO [1-propanol]
effect on prions (prions [1]): do not have an effect on prions

O [100% water, water]
inactivation factor [3]: about 10 | Infectivity titre ± SE ([3]; heat treatment 80° C./20 min.): 7.2 ± 0.7 log ID50 per sample | Mean incubation period ± SE ([3]; heat treatment 80° C./20 min.): 78 ± 4 days | No. infected/No. injected ([3]; heat treatment 80° C./20 min.): 5/5 | Infectivity titre ± SE ([3]; heat treatment 90° C./20 min.): 6.2 ± 0.2 log ID50 per sample | Mean incubation period ± SE ([3]; heat treatment 90° C./20 min.): 85 ± 1 days | No. infected/No. injected ([3]; heat treatment 90° C./20 min.): 5/5 | Infectivity titre ± SE ([3]; heat treatment 100° C./20 min.): 5.0 ± 0.1 log ID50 per sample | Mean incubation period ± SE ([3]; heat treatment 100° C./20 min.): 97 ± 1 days | No. infected/No. injected ([3]; heat treatment 100° C./20 min.): 5/5

guanidinium isothiocyanate
denaturing effect (prions [2]; 1.5 N solution (177 g/l)): partially denaturing effect | prion inactivation (prions [1]; concentration of 3 M, immersion times longer than 1 hour): inactivates prions | illness of experimental animals after intracerebral inoculation (prions [1]; concentration of 4 M, at least 15 minutes residence time): no experimental animal in various experiments is reported to become ill
